Data published in article PMC10447267, “Assessment of the potential of the MET inhibitor tepotinib to affect the pharmacokinetics of CYP3A4 and P-gp substrates” (Investigational New Drugs, 2023).
Read-outs that look alike come from different tables or passages of the source.

Experiments:
CYP3A4 mRNA = CYP3A4 mRNA induction in human hepatocyte cultures; format: in vitro ADME
Protocol: In vitro studies in primary human hepatocyte cultures were conducted to assess the potential of tepotinib to induce human CYP1A1/2, 2B6 and 3A4/5 activity, the latter based on testosterone 6β-hydroxylation reactions (Online Resource 2). […] The studies included positive (rifampin) and vehicle (DMSO) controls. A negative control (flumazenil) was also included in the mRNA studies. The study designs, test systems and selection of prototypical inducers used in these studies were consistent with PhRMA, FDA and EMA guidelines.

CYP2C19 = target: T1, CYP2C19 (Homo sapiens, UniProt P33261); test: CYP2C19 inhibition in pooled human liver microsomes; format: in vitro ADME; settings: for inhibition at 49.5 µM: both sexes, human, pooled human liver microsomes, probe S-mephenytoin (4-hydroxylation)
T1 construct: pooled mixed-gender human liver microsomes; from tissue; host or cells: pooled mixed-gender human liver microsomes
T1 sequence (P33261 whole entry): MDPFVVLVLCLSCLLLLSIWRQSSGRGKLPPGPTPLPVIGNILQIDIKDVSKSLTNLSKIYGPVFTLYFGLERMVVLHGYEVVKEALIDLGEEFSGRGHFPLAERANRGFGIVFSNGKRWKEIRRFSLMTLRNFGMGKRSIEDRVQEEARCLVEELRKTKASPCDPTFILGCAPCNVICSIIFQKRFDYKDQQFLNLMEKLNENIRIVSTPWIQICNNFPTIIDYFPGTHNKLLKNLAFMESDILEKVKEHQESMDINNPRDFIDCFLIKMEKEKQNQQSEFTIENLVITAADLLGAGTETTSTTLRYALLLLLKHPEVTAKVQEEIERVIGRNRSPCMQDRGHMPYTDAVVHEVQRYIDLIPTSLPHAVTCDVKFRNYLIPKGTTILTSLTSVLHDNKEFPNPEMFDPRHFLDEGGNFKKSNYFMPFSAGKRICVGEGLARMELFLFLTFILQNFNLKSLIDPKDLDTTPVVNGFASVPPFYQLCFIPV
Protocol: The potential of tepotinib and MSC2571109A to inhibit CYP450 enzymes CYP1A2, 2A6, 2B6, 2C8, 2C9, 2C19, 2D6, 2E1, and 3A4/5 in vitro was evaluated using CYP-catalyzed reactions in pooled mixed-gender human liver microsomes using specific substrates and liquid chromatography/tandem mass spectrometry (LC–MS/MS) readouts. […] Testosterone 6β-hydroxylation was assessed in the MSC2571109A study. Assessments of mechanism-based inhibition of the above listed CYP450 enzymes were conducted after pre-incubation of the microsomes with tepotinib or MSC2571109A. A brief summary of the incubation methods, including details of substrates used for the other CYP enzymes (which are not pertinent to this article) are presented in Online Resource 1. The LC–MS/MS-based methods used were consistent with those previously described in the literature.

CN1CCC(COc2cnc(-c3cccc(Cn4nc(-c5cccc(C#N)c5)ccc4=O)c3)nc2)CC1 [tepotinib]
Increase in CYP3A4 mRNA (CYP3A4 mRNA; human hepatocyte cultures, maximum (up to), concentration-dependent): up to 7 fold
Effect on CYP3A4 mRNA (in words) (CYP3A4 mRNA; in vitro): increased CYP3A4 mRNA
Potential for time-dependent inhibition (CYP2C19; S-Mephenytoin 4-hydroxylation): Little or No
IC50 (CYP2C19; S-Mephenytoin 4-hydroxylation, 30-min preincubation, read-out: Time-dependent inhibition IC50): 29 µM
inhibition at 49.5 µM (CYP2C19; S-Mephenytoin 4-hydroxylation, 30-min preincubation, read-out: Time-dependent inhibition, maximum inhibition at 49.5 µM): 65%
inhibition at 49.5 µM (CYP2C19; S-Mephenytoin 4-hydroxylation, zero-minute preincubation, read-out: Direct inhibition, maximum inhibition at 49.5 µM): 64%
IC50 (CYP2C19; human liver microsomes, S-Mephenytoin 4-hydroxylation, zero-minute preincubation, read-out: Direct inhibition IC50): 30 µM
Ki (CYP2C19; human liver microsomes, read-out: Ki, CYP2C19-catalyzed probe substrate reaction): ≥ 11 µM
